Earlier results, collected in PMC6738130 (OncoTargets and therapy, 2019).

Tests used:
[1] = driven by mitochondrial inner membrane potential (ΔΨ=140–180 mV)
tumor = conditions: 5 nmol/kg SkQ1 per day in drinking water

Row | SMILES | Accumulation into the mitochondrial matrix [1] | Effect on level of ROS and tumor formation (tumor)
1 | COC1=C(OC)C(=O)C(CCCCCCCCCC[P+](c2ccccc2)(c2ccccc2)c2ccccc2)=C(C)C1=O [MitoQ, mitoquinone] | several hundred-fold | 
2 | CC1=C(C)C(=O)C(CCCCCCCCCC[P+](c2ccccc2)(c2ccccc2)c2ccccc2)=CC1=O.[Br-] [SkQ1] |  | reduced the level of ROS prevented the formation of a tumor
